Where a name gives a salt, the structure may show the parent alone.
Columns and labels:
[1] = Solubility determination in deionized water; assay type: physicochemical; conditions: for Solubility S: ultrasonication, stepwise addition of water; for Dissolution result: visual observation
Protocol: About 2 mg of each of the various crystalline acidic salts and the compound of formula (I) in free form was precisely weighed out into a 2 mL glass vial, and about 100 μL of deionized water was added each time; the mixture was ultrasonicated, and if the compound was not dissolved, the step of adding deionized water and performing ultrasonication was repeated until the compound was completely dissolved or the concentration was <0.2 mg/mL. The total volume of the water added was recorded, the dissolution behavior and result were observed, and the solubility of each compound was calculated.

[2] = Hygroscopic behavior test by dynamic vapor sorption (DVS); assay type: physicochemical; conditions: for Hygroscopic weight gain %: 25° C., DVS
From the text: The experimental method of characterizing the crystalline acidic salts of the compound of formula (I) using dynamic vapor sorption (DVS) is as follows: a small amount of crystalline acidic salt powder of the compound of formula (I) was placed in a precision sample pan that came with the instrument; after the sample was loaded, the aluminum pan was sent into the instrument for analysis. In the present patent, the instruments used for dynamic vapor sorption were all the DVS Intrinsic model, the experimental parameter was set to using nitrogen as a carrier gas, the constant temperature was set to 25° C., the rate of mass percentage change over a unit of time (dm/dt)=0.01%/min was used as a criterion for determining if an equilibrium is reached, and the program humidity change cycle was set as follows: the initial relative humidity was 0%, the relative humidity was 90% at the end of the cycle, 2 cycles were set, and each 10% R.H. change was a step.
The inventors of the present invention measured the hygroscopic weight gains of each of the various crystalline forms in various relative humidity conditions (hygroscopic weight gain/pre-hygroscopic weight[…]) according to the dynamic vapor sorption method, and assessed the hygroscopicity of the different crystalline compounds.

| Structure (SMILES) | Solubility S [1] | Dissolution result [1] | Hygroscopic weight gain % ([2]; relative humidity 0.0 %) [%] | Hygroscopic weight gain % ([2]; relative humidity 10.0 %) [%] | Hygroscopic weight gain % ([2]; relative humidity 20.0 %) [%] | Hygroscopic weight gain % ([2]; relative humidity 30.0 %) [%] | Hygroscopic weight gain % ([2]; relative humidity 40.0 %) [%] | Hygroscopic weight gain % ([2]; relative humidity 50.0 %) [%] | Hygroscopic weight gain % ([2]; relative humidity 60.0 %) [%] | Hygroscopic weight gain % ([2]; relative humidity 70.0 %) [%] | Hygroscopic weight gain % ([2]; relative humidity 80.0 %) [%] | Hygroscopic weight gain % ([2]; relative humidity 90.0 %) [%] | hygroscopic weight gain [2] |
| --- | --- | --- | --- | --- | --- | --- | --- | --- | --- | --- | --- | --- | --- |
| Cc1nc(NC(=O)N2CCC(C)(C)C2=O)ccc1Oc1ccnc(-c2cnn(C)c2)c1 [Citrate crystalline form I, 3,3-dimethyl-N-(6-methyl-5-((2-(1-methyl-1H-pyrazol-4-yl)pyridin-4-yl)oxy)pyridin-2-yl)-2-oxopyrrolidine-1-carboxamide] | S > 20 mg/mL | Clear solution | – | – | – | – | – | – | – | – | – | – | – |
| Cc1nc(NC(=O)N2CCC(C)(C)C2=O)ccc1Oc1ccnc(-c2cnn(C)c2)c1 [Malate crystalline form I, 3,3-dimethyl-N-(6-methyl-5-((2-(1-methyl-1H-pyrazol-4-yl)pyridin-4-yl)oxy)pyridin-2-yl)-2-oxopyrrolidine-1-carboxamide] | S > 20 mg/mL | Clear solution | – | – | – | – | – | – | – | – | – | – | – |
| Cc1nc(NC(=O)N2CCC(C)(C)C2=O)ccc1Oc1ccnc(-c2cnn(C)c2)c1 [Compound in free form, 3,3-dimethyl-N-(6-methyl-5-((2-(1-methyl-1H-pyrazol-4-yl)pyridin-4-yl)oxy)pyridin-2-yl)-2-oxopyrrolidine-1-carboxamide] | S < 1.5 mg/mL | Not clear | – | – | – | – | – | – | – | – | – | – | – |
| Cc1nc(NC(=O)N2CCC(C)(C)C2=O)ccc1Oc1ccnc(-c2cnn(C)c2)c1 [Sulfate crystalline form I, 3,3-dimethyl-N-(6-methyl-5-((2-(1-methyl-1H-pyrazol-4-yl)pyridin-4-yl)oxy)pyridin-2-yl)-2-oxopyrrolidine-1-carboxamide] | S > 20 mg/mL | Clear solution | – | – | – | – | – | – | – | – | – | – | – |
| Cc1nc(NC(=O)N2CCC(C)(C)C2=O)ccc1Oc1ccnc(-c2cnn(C)c2)c1 [Phosphate crystalline form I, 3,3-dimethyl-N-(6-methyl-5-((2-(1-methyl-1H-pyrazol-4-yl)pyridin-4-yl)oxy)pyridin-2-yl)-2-oxopyrrolidine-1-carboxamide] | S > 20 mg/mL | Clear solution | 0.02 | 1.19 | 1.86 | 2.32 | 2.78 | 3.37 | 3.97 | 4.66 | 5.46 | 6.383 | – |
| Cc1nc(NC(=O)N2CCC(C)(C)C2=O)ccc1Oc1ccnc(-c2cnn(C)c2)c1 [Tartrate crystalline form I, 3,3-dimethyl-N-(6-methyl-5-((2-(1-methyl-1H-pyrazol-4-yl)pyridin-4-yl)oxy)pyridin-2-yl)-2-oxopyrrolidine-1-carboxamide] | S > 20 mg/mL | Clear solution | 0.00 | 0.83 | 1.79 | 2.42 | 2.88 | 3.32 | 3.77 | 4.44 | 5.17 | 10.61 | – |
| Cc1nc(NC(=O)N2CCC(C)(C)C2=O)ccc1Oc1ccnc(-c2cnn(C)c2)c1 [Fumarate crystalline form I, 3,3-dimethyl-N-(6-methyl-5-((2-(1-methyl-1H-pyrazol-4-yl)pyridin-4-yl)oxy)pyridin-2-yl)-2-oxopyrrolidine-1-carboxamide] | S > 20 mg/mL | Clear solution | – | – | – | – | – | – | – | – | – | – | – |
| Cc1nc(NC(=O)N2CCC(C)(C)C2=O)ccc1Oc1ccnc(-c2cnn(C)c2)c1 [Hydrochloride crystalline form I, 3,3-dimethyl-N-(6-methyl-5-((2-(1-methyl-1H-pyrazol-4-yl)pyridin-4-yl)oxy)pyridin-2-yl)-2-oxopyrrolidine-1-carboxamide] | S > 20 mg/mL | Clear solution | 0.00 | 0.13 | 0.24 | 0.34 | 0.42 | 0.52 | 0.63 | 0.81 | 1.37 | 19.40 | less than 10% |
| Cc1nc(NC(=O)N2CCC(C)(C)C2=O)ccc1Oc1ccnc(-c2cnn(C)c2)c1 [Methanesulfonate crystalline form II, 3,3-dimethyl-N-(6-methyl-5-((2-(1-methyl-1H-pyrazol-4-yl)pyridin-4-yl)oxy)pyridin-2-yl)-2-oxopyrrolidine-1-carboxamide] | S > 20 mg/mL | Clear solution | 0.00 | 0.11 | 0.18 | 0.20 | 0.24 | 0.31 | 0.88 | 8.93 | 12.44 | 23.15 | – |
